Results from patent US20070049564A1 (Wyeth, priority 2005, published 2007).
Where two headings read alike, the source gives them in different places.

Experiments:
S. typhimurium GC 2172 = assay: MIC, broth microdilution; conditions: Salmonella enterica, TYPHIMURIUM
S. aureus GC 6467 = assay: MIC, broth microdilution; conditions: Staphylococcus aureus
E. coli GC 6465 = assay: MIC, broth microdilution; conditions: Escherichia coli
S. aureus GC 6466 = assay: MIC, broth microdilution; conditions: Staphylococcus aureus
E. coli GC 2203 = assay: MIC, broth microdilution; conditions: Escherichia coli
S. epidermidis GC 4935 = assay: MIC, broth microdilution; conditions: Staphylococcus epidermidis
Staph. = assay: Range of MIC for Staph. strains, including MRSA; conditions: Staphylococcus aureus, MRSA
E. coli GC 2231 = assay: MIC, broth microdilution; conditions: Escherichia coli
E. coli GC 2234 = assay: MIC, broth microdilution; conditions: Escherichia coli
E. coli GC 2236 = assay: MIC, broth microdilution; conditions: Escherichia coli
E. faecalis GC 4555 = assay: MIC, broth microdilution; conditions: Enterococcus faecalis
E. faecium GC 4556 = assay: MIC, broth microdilution; conditions: Enterococcus faecium
S. aureus GC 1079 = assay: MIC, broth microdilution; conditions: Staphylococcus aureus
E. coli GC 2272 = assay: MIC, broth microdilution; conditions: Escherichia coli
E. faecalis GC 2267 = assay: MIC, broth microdilution; conditions: Enterococcus faecalis
S. pneumoniae* GC 4465 = assay: MIC, broth microdilution; conditions: Streptococcus pneumoniae
E. coli GC 4560 = assay: MIC, broth microdilution; conditions: Escherichia coli
S. aureus GC 1131 = assay: MIC, broth microdilution; conditions: Staphylococcus aureus
E. coli GC 2235 = assay: MIC, broth microdilution; conditions: Escherichia coli
E. coli GC 2233 = assay: MIC, broth microdilution; conditions: Escherichia coli
[1] = read-out: MINIMAL INHIBITORY CONCENTRATION MIC, pre-incubated in Mouse Serum
[2] = read-out: MINIMAL INHIBITORY CONCENTRATION MIC, pre-incubated in Water

Measured: MIC

CCCN(CC(=O)Nc1cc(N(C)C)c2c(c1O)C(=O)C1=C(O)[C@]3(O)C(=O)C(C(N)=O)=C(O)[C@@H](N(C)C)[C@@H]3C[C@@H]1C2)C(=O)OCOC(=O)c1ccc(-c2ccccc2)cc1 [Example 24, ({[(2-{[(5aR,6aS,7S,10aS)-9-(aminocarbonyl)-4,7-bis(dimethylamino)-1,8,10a,11-tetrahydroxy-10,12-dioxo-5,5a,6,6a,7,10,10a,12-octahydrotetracen-2-yl]amino}-2-oxoethyl)(propyl)amino]carbonyl}oxy)methyl 1,1′-biphenyl-4-carboxylate]
0.25 µg/mL: S. aureus GC 6466; GC6466, read-out: MINIMAL INHIBITORY CONCENTRATION MIC, pre-incubated in Mouse Serum | E. coli GC 4560; GC4560, read-out: MINIMAL INHIBITORY CONCENTRATION MIC, pre-incubated in Mouse Serum
2 µg/mL: S. epidermidis GC 4935; GC4935, read-out: MINIMAL INHIBITORY CONCENTRATION MIC, pre-incubated in Mouse Serum | E. coli GC 2231; GC2231, read-out: MINIMAL INHIBITORY CONCENTRATION MIC, pre-incubated in Mouse Serum | S. aureus GC 1079; GC1079, read-out: MINIMAL INHIBITORY CONCENTRATION MIC, pre-incubated in Mouse Serum | S. aureus GC 1131; GC1131, read-out: MINIMAL INHIBITORY CONCENTRATION MIC, pre-incubated in Water
64 µg/mL: E. faecalis GC 4555; GC4555, read-out: MINIMAL INHIBITORY CONCENTRATION MIC, pre-incubated in Water | S. aureus GC 1079; GC1079, read-out: MINIMAL INHIBITORY CONCENTRATION MIC, pre-incubated in Water | E. faecalis GC 2267; GC2267, read-out: MINIMAL INHIBITORY CONCENTRATION MIC, pre-incubated in Water | E. coli GC 4560; GC4560, read-out: MINIMAL INHIBITORY CONCENTRATION MIC, pre-incubated in Water
4 µg/mL: S. aureus GC 6467; GC6467, read-out: MINIMAL INHIBITORY CONCENTRATION MIC, pre-incubated in Mouse Serum | E. faecalis GC 2267; GC2267, read-out: MINIMAL INHIBITORY CONCENTRATION MIC, pre-incubated in Mouse Serum
16 µg/mL: S. epidermidis GC 4935; GC4935, read-out: MINIMAL INHIBITORY CONCENTRATION MIC, pre-incubated in Water
1 µg/mL: E. coli GC 2236; GC2236, read-out: MINIMAL INHIBITORY CONCENTRATION MIC, pre-incubated in Mouse Serum | E. faecalis GC 4555; GC4555, read-out: MINIMAL INHIBITORY CONCENTRATION MIC, pre-incubated in Mouse Serum | E. faecium GC 4556; GC4556, read-out: MINIMAL INHIBITORY CONCENTRATION MIC, pre-incubated in Mouse Serum | E. coli GC 2272; GC2272, read-out: MINIMAL INHIBITORY CONCENTRATION MIC, pre-incubated in Mouse Serum | S. aureus GC 1131; GC1131, read-out: MINIMAL INHIBITORY CONCENTRATION MIC, pre-incubated in Mouse Serum | E. coli GC 2233; GC2233, read-out: MINIMAL INHIBITORY CONCENTRATION MIC, pre-incubated in Mouse Serum
32 µg/mL: E. faecium GC 4556; GC4556, read-out: MINIMAL INHIBITORY CONCENTRATION MIC, pre-incubated in Water
0.5 µg/mL: S. aureus GC 6466; GC6466, read-out: MINIMAL INHIBITORY CONCENTRATION MIC, pre-incubated in Water | E. coli GC 2203; GC2203, read-out: MINIMAL INHIBITORY CONCENTRATION MIC, pre-incubated in Mouse Serum | E. coli GC 2234; GC2234, read-out: MINIMAL INHIBITORY CONCENTRATION MIC, pre-incubated in Mouse Serum | E. coli GC 2235; GC2235, read-out: MINIMAL INHIBITORY CONCENTRATION MIC, pre-incubated in Mouse Serum
0.25 to 4 µg/mL: Staph.; read-out: Range of MIC, Staph (Mouse Serum) | Staph.; read-out: Range of MIC, Staph. (mouse serum)
< 0.06 µg/mL: S. pneumoniae* GC 4465; [1] | S. pneumoniae* GC 4465; [2]
> 64 µg/mL: S. typhimurium GC 2172; [2] | S. aureus GC 6467; GC6467, read-out: MINIMAL INHIBITORY CONCENTRATION MIC, pre-incubated in Water | E. coli GC 6465; GC6465, read-out: MINIMAL INHIBITORY CONCENTRATION MIC, pre-incubated in Water | E. coli GC 2203; GC2203, read-out: MINIMAL INHIBITORY CONCENTRATION MIC, pre-incubated in Water | E. coli GC 2231; GC2231, read-out: MINIMAL INHIBITORY CONCENTRATION MIC, pre-incubated in Water | E. coli GC 2234; GC2234, read-out: MINIMAL INHIBITORY CONCENTRATION MIC, pre-incubated in Water | E. coli GC 2236; GC2236, read-out: MINIMAL INHIBITORY CONCENTRATION MIC, pre-incubated in Water | E. coli GC 2272; GC2272, read-out: MINIMAL INHIBITORY CONCENTRATION MIC, pre-incubated in Water | E. coli GC 2235; GC2235, read-out: MINIMAL INHIBITORY CONCENTRATION MIC, pre-incubated in Water | E. coli GC 2233; GC2233, read-out: MINIMAL INHIBITORY CONCENTRATION MIC, pre-incubated in Water
8 µg/mL: S. typhimurium GC 2172; [1] | E. coli GC 6465; GC6465, read-out: MINIMAL INHIBITORY CONCENTRATION MIC, pre-incubated in Mouse Serum
